Tests used:
Assay in all cases: biochemical
Design in all cases: KINOMEscan active-site competition binding panel (468 kinase assays), per cent of control at 1000 nM
Conditions in all cases: KINOMEscan per cent of control (binding competition); read-out: Percent Control
[1] = target: T1, ASK2 (Homo sapiens, UniProt O95382)
T1 construct: gene MAP3K6
Text: (§1) Figure S7 / Percent Control

[2] = target: BMPR2 (Homo sapiens, UniProt Q13873)
Text: as §1

[3] = target: PDGFRA (Homo sapiens, UniProt P16234)
Text: as §1

[4] = target: BTK (Homo sapiens, UniProt Q06187)
Chain of BTK (Q06187 whole entry): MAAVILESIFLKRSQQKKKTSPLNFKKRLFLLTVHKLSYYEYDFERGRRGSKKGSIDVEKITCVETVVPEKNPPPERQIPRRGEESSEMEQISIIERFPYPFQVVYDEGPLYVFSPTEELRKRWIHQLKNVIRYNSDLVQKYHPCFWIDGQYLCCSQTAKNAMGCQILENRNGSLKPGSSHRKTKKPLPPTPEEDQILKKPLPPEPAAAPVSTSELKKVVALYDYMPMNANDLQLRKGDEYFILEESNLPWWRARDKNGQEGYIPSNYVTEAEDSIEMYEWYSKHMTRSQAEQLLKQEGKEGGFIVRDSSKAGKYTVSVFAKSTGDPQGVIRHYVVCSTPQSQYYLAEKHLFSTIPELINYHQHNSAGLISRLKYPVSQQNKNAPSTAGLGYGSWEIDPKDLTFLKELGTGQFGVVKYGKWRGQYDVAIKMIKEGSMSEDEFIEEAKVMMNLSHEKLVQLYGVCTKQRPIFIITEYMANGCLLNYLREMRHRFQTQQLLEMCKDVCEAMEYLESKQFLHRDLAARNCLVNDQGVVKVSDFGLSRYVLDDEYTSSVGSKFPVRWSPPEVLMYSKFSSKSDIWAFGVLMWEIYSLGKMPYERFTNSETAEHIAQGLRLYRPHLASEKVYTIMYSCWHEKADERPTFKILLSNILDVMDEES
Text: as §1

[5] = target: T2, PCTK2 (Homo sapiens, UniProt Q00537)
T2 construct: gene CDK17
Text: as §1

[6] = target: ERBB3 (Homo sapiens, UniProt P21860)
Text: as §1

[7] = target: STK39 (Homo sapiens, UniProt Q9UEW8)
Text: as §1

[8] = target: RIPK1 (Homo sapiens, UniProt Q13546)
Chain of RIPK1 (Q13546 whole entry): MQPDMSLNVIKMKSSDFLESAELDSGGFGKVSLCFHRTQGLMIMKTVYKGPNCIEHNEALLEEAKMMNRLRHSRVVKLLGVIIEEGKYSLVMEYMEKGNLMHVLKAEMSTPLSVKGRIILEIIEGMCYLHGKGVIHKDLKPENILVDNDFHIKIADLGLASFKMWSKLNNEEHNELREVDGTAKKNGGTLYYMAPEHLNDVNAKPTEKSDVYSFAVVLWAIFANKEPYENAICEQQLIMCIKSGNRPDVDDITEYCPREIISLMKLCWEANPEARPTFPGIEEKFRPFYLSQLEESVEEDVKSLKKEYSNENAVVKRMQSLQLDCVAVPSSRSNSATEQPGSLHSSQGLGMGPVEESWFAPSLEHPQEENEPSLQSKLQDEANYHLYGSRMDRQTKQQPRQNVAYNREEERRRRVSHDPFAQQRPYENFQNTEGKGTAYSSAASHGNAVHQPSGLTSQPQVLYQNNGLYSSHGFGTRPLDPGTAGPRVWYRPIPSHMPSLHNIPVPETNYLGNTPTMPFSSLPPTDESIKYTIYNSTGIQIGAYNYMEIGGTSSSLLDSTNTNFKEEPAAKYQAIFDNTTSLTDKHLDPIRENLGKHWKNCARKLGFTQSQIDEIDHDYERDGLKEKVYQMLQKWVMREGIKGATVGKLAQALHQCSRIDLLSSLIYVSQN
Text: as §1

[9] = target: AKT3 (Homo sapiens, UniProt Q9Y243)
Text: as §1

[10] = target: MARK2 (Homo sapiens, UniProt Q7KZI7)
Text: as §1

[11] = target: CLK4 (Homo sapiens, UniProt Q9HAZ1)
Text: as §1

[12] = target: PIK3CA(I800L) (Homo sapiens, UniProt P42336, I800L)
Chain of PIK3CA(I800L) (P42336 whole entry I800L): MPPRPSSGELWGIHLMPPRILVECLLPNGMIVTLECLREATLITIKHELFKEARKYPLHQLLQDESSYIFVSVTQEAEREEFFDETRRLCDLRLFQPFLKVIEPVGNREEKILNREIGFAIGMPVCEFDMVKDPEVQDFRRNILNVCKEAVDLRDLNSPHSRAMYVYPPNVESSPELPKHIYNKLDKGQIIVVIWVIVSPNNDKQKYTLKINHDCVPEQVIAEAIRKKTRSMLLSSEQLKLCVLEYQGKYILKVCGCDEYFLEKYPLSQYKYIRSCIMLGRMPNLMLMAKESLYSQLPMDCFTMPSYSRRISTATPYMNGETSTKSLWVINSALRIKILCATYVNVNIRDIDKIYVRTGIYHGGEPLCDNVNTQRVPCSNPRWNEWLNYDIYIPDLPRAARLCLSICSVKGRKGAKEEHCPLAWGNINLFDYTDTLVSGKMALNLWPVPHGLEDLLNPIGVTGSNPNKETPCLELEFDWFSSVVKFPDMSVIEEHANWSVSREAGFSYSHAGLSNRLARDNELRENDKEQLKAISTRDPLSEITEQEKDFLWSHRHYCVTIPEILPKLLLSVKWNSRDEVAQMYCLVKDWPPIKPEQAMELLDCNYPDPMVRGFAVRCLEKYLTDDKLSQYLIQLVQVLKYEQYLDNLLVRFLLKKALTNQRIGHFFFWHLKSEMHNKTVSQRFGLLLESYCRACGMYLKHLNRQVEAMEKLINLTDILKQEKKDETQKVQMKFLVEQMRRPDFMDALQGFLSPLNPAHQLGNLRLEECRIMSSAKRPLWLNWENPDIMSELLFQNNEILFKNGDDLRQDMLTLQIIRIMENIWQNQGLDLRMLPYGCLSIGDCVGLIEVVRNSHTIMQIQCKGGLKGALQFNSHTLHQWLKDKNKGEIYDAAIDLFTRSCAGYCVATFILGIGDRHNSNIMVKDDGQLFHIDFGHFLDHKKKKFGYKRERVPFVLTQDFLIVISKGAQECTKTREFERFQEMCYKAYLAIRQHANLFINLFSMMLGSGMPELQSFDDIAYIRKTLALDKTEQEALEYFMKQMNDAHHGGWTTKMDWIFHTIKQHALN
Text: as §1

[13] = target: T3, ABL1(Y253F)-phosphorylated (Homo sapiens, UniProt P00519, Y253F)
T3 construct: phosphorylated
Text: as §1

[14] = target: NEK6 (Homo sapiens, UniProt Q9HC98)
Chain of NEK6 (Q9HC98 whole entry): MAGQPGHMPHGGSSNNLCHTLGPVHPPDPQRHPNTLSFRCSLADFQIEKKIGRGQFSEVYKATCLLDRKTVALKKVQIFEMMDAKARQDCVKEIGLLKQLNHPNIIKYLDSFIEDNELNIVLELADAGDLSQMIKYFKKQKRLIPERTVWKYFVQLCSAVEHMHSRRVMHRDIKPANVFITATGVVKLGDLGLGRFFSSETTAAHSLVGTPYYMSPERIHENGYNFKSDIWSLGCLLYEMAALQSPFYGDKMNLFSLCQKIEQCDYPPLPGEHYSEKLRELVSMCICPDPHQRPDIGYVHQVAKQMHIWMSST
Text: as §1

[15] = target: PIK3CA(E545K) (Homo sapiens, UniProt P42336, E545K)
Chain of PIK3CA(E545K) (P42336 whole entry E545K): as the sequence (P42336 whole entry I800L) above, with E545K, L800I counted along it
Text: as §1

[16] = target: EPHA2 (Homo sapiens, UniProt P29317)
Text: as §1

[17] = target: T4, ERK1 (Homo sapiens, UniProt P27361)
T4 construct: gene MAPK3
Text: as §1

[18] = target: GRK3 (Homo sapiens, UniProt P35626)
Text: as §1

[19] = target: WNK2 (Homo sapiens, UniProt Q9Y3S1)
Chain of WNK2 (Q9Y3S1 whole entry): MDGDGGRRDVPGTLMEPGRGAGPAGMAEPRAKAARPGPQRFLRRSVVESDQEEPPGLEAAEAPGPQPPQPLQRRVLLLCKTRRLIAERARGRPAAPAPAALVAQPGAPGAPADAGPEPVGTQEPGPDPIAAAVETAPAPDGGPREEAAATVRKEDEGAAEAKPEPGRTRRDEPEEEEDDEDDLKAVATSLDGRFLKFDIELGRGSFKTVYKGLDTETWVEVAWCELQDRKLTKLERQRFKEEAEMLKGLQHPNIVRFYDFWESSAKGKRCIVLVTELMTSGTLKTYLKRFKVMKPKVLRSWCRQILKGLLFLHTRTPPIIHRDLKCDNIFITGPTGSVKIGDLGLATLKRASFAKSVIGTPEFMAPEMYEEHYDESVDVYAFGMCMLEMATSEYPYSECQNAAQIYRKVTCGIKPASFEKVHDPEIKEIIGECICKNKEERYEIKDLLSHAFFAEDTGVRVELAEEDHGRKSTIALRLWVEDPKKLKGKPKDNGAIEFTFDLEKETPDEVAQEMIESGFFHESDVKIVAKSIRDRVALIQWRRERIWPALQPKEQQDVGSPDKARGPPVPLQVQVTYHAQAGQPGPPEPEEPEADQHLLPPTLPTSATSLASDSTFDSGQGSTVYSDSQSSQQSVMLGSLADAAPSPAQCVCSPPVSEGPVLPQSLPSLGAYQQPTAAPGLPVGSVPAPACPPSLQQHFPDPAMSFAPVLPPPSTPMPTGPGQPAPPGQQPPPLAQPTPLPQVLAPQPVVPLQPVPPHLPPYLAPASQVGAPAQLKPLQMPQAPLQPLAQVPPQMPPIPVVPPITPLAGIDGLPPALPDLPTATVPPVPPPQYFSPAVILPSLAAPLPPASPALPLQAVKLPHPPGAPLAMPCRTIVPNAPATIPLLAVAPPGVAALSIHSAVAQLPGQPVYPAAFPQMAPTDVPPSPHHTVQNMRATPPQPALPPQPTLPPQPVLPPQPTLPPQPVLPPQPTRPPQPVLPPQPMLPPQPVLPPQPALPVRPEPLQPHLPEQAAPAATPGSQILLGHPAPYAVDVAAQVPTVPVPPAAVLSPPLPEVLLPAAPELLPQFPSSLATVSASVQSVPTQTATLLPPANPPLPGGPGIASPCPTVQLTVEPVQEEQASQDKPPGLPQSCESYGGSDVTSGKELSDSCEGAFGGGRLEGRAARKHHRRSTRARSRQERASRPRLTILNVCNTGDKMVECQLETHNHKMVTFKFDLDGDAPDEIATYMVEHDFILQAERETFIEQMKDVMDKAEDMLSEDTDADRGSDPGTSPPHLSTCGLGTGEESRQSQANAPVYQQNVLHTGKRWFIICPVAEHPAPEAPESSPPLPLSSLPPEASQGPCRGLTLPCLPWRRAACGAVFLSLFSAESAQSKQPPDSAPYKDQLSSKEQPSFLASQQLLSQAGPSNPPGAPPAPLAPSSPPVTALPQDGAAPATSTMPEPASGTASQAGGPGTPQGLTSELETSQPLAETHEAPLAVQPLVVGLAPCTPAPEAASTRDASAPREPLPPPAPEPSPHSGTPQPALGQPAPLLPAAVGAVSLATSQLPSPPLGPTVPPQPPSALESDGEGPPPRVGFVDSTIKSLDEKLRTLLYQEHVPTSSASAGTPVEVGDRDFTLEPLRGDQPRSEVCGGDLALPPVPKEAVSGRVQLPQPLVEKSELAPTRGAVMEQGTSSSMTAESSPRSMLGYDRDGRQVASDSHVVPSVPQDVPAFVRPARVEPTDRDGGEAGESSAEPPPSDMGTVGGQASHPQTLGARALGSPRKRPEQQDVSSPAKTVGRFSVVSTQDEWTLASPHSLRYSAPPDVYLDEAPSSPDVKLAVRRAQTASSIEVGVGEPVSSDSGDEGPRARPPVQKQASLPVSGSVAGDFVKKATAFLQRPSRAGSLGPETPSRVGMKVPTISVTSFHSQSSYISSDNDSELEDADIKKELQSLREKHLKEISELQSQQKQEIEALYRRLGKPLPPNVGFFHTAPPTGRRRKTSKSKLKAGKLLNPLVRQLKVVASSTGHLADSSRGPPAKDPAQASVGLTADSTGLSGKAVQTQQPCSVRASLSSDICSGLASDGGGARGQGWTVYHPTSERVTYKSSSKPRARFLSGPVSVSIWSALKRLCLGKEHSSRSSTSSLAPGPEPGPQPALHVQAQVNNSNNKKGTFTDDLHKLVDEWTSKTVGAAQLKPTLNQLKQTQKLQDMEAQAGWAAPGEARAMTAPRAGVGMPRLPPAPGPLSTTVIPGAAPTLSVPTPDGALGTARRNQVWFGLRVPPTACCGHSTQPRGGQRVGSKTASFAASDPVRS
Text: as §1

[20] = target: T5, MRCKA (Homo sapiens, UniProt Q5VT25)
T5 construct: gene CDC42BPA
Text: as §1

[21] = target: PIK3CG (Homo sapiens, UniProt P48736)
Text: as §1

[22] = target: T6, SGK (Homo sapiens, UniProt O00141)
T6 construct: gene SGK1
Text: as §1

[23] = target: PIK3CA(H1047Y) (Homo sapiens, UniProt P42336, H1047Y)
Chain of PIK3CA(H1047Y) (P42336 whole entry H1047Y): as the sequence (P42336 whole entry I800L) above, with L800I, H1047Y counted along it
Text: as §1

[24] = target: TSSK3 (Homo sapiens, UniProt Q96PN8)
Text: as §1

[25] = target: CLK1 (Homo sapiens, UniProt P49759)
Text: as §1

With `Cn1c(=O)[nH]c2ccc(-c3cccc(C(=O)NC4CCn5ccnc5C4)c3)cc21` (stereo not shown) [Z36-MP5] as the molecule, how does the remaining binding at 1 µM [1] read?
The remaining binding at 1 µM was 93%.

What about the remaining binding at 1 µM [2] of the same molecule?
The remaining binding at 1 µM was 62%.

And the remaining binding at 1 µM [3]?
The remaining binding at 1 µM was 75%.

And the remaining binding at 1 µM [4]?
The remaining binding at 1 µM was 89%.

What about the remaining binding at 1 µM [5] of the same molecule?
The remaining binding at 1 µM was 94%.

What about the remaining binding at 1 µM [6] of the same molecule?
The remaining binding at 1 µM was 100%.

And the remaining binding at 1 µM [7]?
The remaining binding at 1 µM was 60%.

And the remaining binding at 1 µM [8]?
Its remaining binding at 1 µM is 87%.

And the remaining binding at 1 µM [9]?
Its remaining binding at 1 µM is 91%.

What about the remaining binding at 1 µM [10] of the same molecule?
Its remaining binding at 1 µM is 100%.

What about the remaining binding at 1 µM [11] of the same molecule?
The remaining binding at 1 µM was 69%.

What about the remaining binding at 1 µM [12] of the same molecule?
Its remaining binding at 1 µM is 94%.

And the remaining binding at 1 µM [13]?
Its remaining binding at 1 µM is 72%.

And the remaining binding at 1 µM [14]?
The remaining binding at 1 µM was 83%.

And the remaining binding at 1 µM [15]?
Its remaining binding at 1 µM is 48%.

And the remaining binding at 1 µM [16]?
Its remaining binding at 1 µM is 88%.

What about the remaining binding at 1 µM [17] of the same molecule?
Its remaining binding at 1 µM is 98%.

And the remaining binding at 1 µM [18]?
Its remaining binding at 1 µM is 53%.

What about the remaining binding at 1 µM [19] of the same molecule?
Its remaining binding at 1 µM is 63%.

And the remaining binding at 1 µM [20]?
The remaining binding at 1 µM was 100%.

And the remaining binding at 1 µM [21]?
The remaining binding at 1 µM was 83%.

And the remaining binding at 1 µM [22]?
The remaining binding at 1 µM was 68%.

And the remaining binding at 1 µM [23]?
The remaining binding at 1 µM was 91%.

What about the remaining binding at 1 µM [24] of the same molecule?
Its remaining binding at 1 µM is 42%.

What about the remaining binding at 1 µM [25] of the same molecule?
Its remaining binding at 1 µM is 96%.

Source: publication PMC10924921, “Mi-2β promotes immune evasion in melanoma by activating EZH2 methylation” (Nature Communications, 2024)
